Measurements taken from PubChem BioAssay (NCI).
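Exposure lasted 48 hours, with cells grown in 96-well plates and compounds tested at five concentrations. GI50 is the concentration that inhibits growth by half. The concentration for full growth arrest is given as TGI.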

Tests used:
Assay in all cases: NCI-60 cell line screen, 48 h
[1] = test system: NCI-H522 lung
[2] = test system: SW-620 colon
[3] = test system: K-562 leukemia
[4] = test system: PC-3 prostate
[5] = test system: 786-0 renal
[6] = test system: OVCAR-3 ovarian
[7] = test system: EKVX NSCLC
[8] = test system: SNB-19 CNS
[9] = test system: COLO 205 colon
[10] = test system: CCRF-CEM leukemia
[11] = test system: TK-10 renal
[12] = test system: SK-MEL-2 melanoma
[13] = test system: NCI-H226 lung
[14] = test system: OVCAR-5 ovarian
[15] = test system: BT-549 breast
[16] = test system: SK-OV-3 ovarian
[17] = test system: HT29 colon
[18] = test system: UACC-257 melanoma
[19] = test system: HCT-116 colon
[20] = test system: RXF 393 renal
[21] = test system: UACC-62 melanoma
[22] = test system: T-47D breast
[23] = test system: SF-539 CNS
[24] = test system: OVCAR-4 ovarian
[25] = test system: SF-295 CNS
[26] = test system: SNB-75 CNS
[27] = test system: MALME-3M melanoma
[28] = test system: KM12 colon
[29] = test system: SK-MEL-5 melanoma
[30] = test system: SN12C renal
[31] = test system: UO-31 renal
[32] = test system: OVCAR-8 ovarian
[33] = test system: MCF7 breast
[34] = test system: U251 CNS
[35] = test system: CAKI-1 renal
[36] = test system: LOX IMVI melanoma
[37] = test system: SK-MEL-28 melanoma
[38] = test system: A549 NSCLC
[39] = test system: RPMI-8226 leukemia
[40] = test system: HOP-62 NSCLC
[41] = test system: NCI-H23 lung
[42] = test system: MOLT-4 leukemia
[43] = test system: M14 melanoma
[44] = test system: HCT-15 colon
[45] = test system: IGROV1 ovarian
[46] = test system: NCI/ADR-RES ovarian
[47] = test system: A498 renal
[48] = test system: HS 578T breast
[49] = test system: MDA-MB-231 breast
[50] = test system: ACHN renal
[51] = test system: HOP-92 NSCLC
[52] = test system: SF-268 CNS
[53] = test system: DU-145 prostate
[54] = test system: MDA-MB-435
[55] = test system: NCI-H460 lung

For `Cc1ccc(C2SCc3nc4ccc(C(=O)c5ccccc5)cc4n32)cc1` (stereo not given), the GI50 [1] was 7.93 µM, the TGI [1] was 38.2 µM and the GI50 [2] was 3.69 µM. It also gave a TGI [2] of over 39.1 µM, a GI50 [3] of 3.74 µM and a TGI [3] of over 100 µM. For the same compound, the GI50 [4] was 10.5 µM, the TGI [4] was over 67.5 µM and the GI50 [5] was 13.3 µM. The TGI [5] was 42.2 µM, the GI50 [6] was 6.72 µM and the TGI [6] was 21.9 µM. It also gave a GI50 [7] of 21.8 µM, a TGI [7] of over 100 µM and a GI50 [8] of 12.4 µM. The TGI [8] was over 71.9 µM, the GI50 [9] was 6.18 µM and the TGI [9] was over 100 µM. It also gave a GI50 [10] of 23.8 µM, a TGI [10] of over 100 µM and a GI50 [11] of 13.9 µM. The TGI [11] was 35.1 µM, the GI50 [12] was 12.1 µM and the TGI [12] was 47.3 µM. For the same compound, the GI50 [13] was 15.3 µM, the TGI [13] was 62.3 µM and the GI50 [14] was 21.5 µM. For the same compound, the TGI [14] was 55.2 µM, the GI50 [15] was 4.8 µM and the TGI [15] was 18.4 µM. For the same compound, the GI50 [16] was 20.5 µM, the TGI [16] was 47.8 µM and the GI50 [17] was 5.73 µM. It also gave a TGI [17] of over 100 µM, a GI50 [18] of 22 µM and a TGI [18] of over 61.9 µM. The GI50 [19] was 3.99 µM, the TGI [19] was 41.3 µM and the GI50 [20] was 21.4 µM. For the same compound, the TGI [20] was 70.3 µM, the GI50 [21] was 5.29 µM and the TGI [21] was 19.3 µM. It also gave a GI50 [22] of 14 µM, a TGI [22] of over 63.5 µM and a GI50 [23] of 13.4 µM. For the same compound, the TGI [23] was 32.5 µM, the GI50 [24] was 34 µM and the TGI [24] was over 100 µM. The GI50 [25] was 8.21 µM, the TGI [25] was 33 µM and the GI50 [26] was 23.3 µM. For the same compound, the TGI [26] was over 70 µM, the GI50 [27] was 6.27 µM and the TGI [27] was 26.8 µM. For the same compound, the GI50 [28] was 6.49 µM, the TGI [28] was 35.2 µM and the GI50 [29] was 1.33 µM. It also gave a TGI [29] of 7.48 µM, a GI50 [30] of 11.4 µM and a TGI [30] of 38.3 µM. For the same compound, the GI50 [31] was 17 µM, the TGI [31] was 54.9 µM and the GI50 [32] was 15.4 µM. For the same compound, the TGI [32] was 62.6 µM, the GI50 [33] was 11.9 µM and the TGI [33] was over 76.7 µM. For the same compound, the GI50 [34] was 5.09 µM, the TGI [34] was over 83.7 µM and the GI50 [35] was 0.457 µM. For the same compound, the TGI [35] was 4.26 µM, the GI50 [36] was over 36.7 µM and the TGI [36] was over 100 µM. It also gave a GI50 [37] of 17.7 µM, a TGI [37] of over 100 µM and a GI50 [38] of 5.99 µM. For the same compound, the TGI [38] was over 63.3 µM, the GI50 [39] was 10.3 µM and the TGI [39] was over 95 µM. The GI50 [40] was 14.8 µM, the TGI [40] was 39.6 µM and the GI50 [41] was 14.4 µM. For the same compound, the TGI [41] was over 62 µM, the GI50 [42] was 14.8 µM and the TGI [42] was over 100 µM. It also gave a GI50 [43] of 11.6 µM, a TGI [43] of over 69.1 µM and a GI50 [44] of 3.85 µM. It also gave a TGI [44] of over 42.9 µM, a GI50 [45] of 13.6 µM and a TGI [45] of over 69 µM. It also gave a GI50 [46] of 2.37 µM, a TGI [46] of 8.38 µM and a GI50 [47] of 13.5 µM. The TGI [47] was 36.3 µM, the GI50 [48] was 22.2 µM and the TGI [48] was 68.9 µM. For the same compound, the GI50 [49] was 3.66 µM, the TGI [49] was 19.4 µM and the GI50 [50] was 14.1 µM. The TGI [50] was over 56.9 µM, the GI50 [51] was 11.7 µM and the TGI [51] was 38.8 µM. For the same compound, the GI50 [52] was 22.4 µM, the TGI [52] was 77.7 µM and the GI50 [53] was 27.9 µM. It also gave a TGI [53] of 89.6 µM, a GI50 [54] of 2.83 µM and a TGI [54] of 11.4 µM. For the same compound, the GI50 [55] was 10.7 µM and the TGI [55] was over 75.6 µM.
